Experimental data reported in article PMC12382740, “In Vitro and In Vivo Characterization of Novel Cathelicidin-Based Peptides with Antimicrobial Activity Against Pseudomonas aeruginosa” (Antibiotics, 2025).
Square brackets hold non-standard residues; d marks the D form. Peptide text beside a SMILES is read from it.

Columns and labels:
HeLa cells = type: cell-based, human; conditions: 24 h
Protocol: (§1) Cell viability assays were performed against HeLa and A549 cells. Cells were seeded in Corning 96-well microplates at 2 × 10^3 cells/well and 5 × 10^3 cells/well and incubated for 24 h at 37 °C. Then, cells were treated with peptides dissolved in Dulbecco’s Modified Eagle’s Medium for 24 h; peptide concentration range 0.1–100 µM. The peptide solution was then removed, and fresh medium was added to the cells. Finally, 50 µL of activated-XTT solution was added and incubated for 4 h at 37 °C. A PowerWave X reader (BioTek, Winooski, VT, USA) was used to measure absorbance at 450 nm. Cell viability was calculated through the ratio of the absorbance of peptide-treated cells over the absorbance of untreated cells. Triplicates were run for each experiment.

A549 cells = type: cell-based, human; conditions: for IC50: 24 h; for A549 IC50: 24 h treatment, XTT, value in brackets
Protocol: as §1

human erythrocytes = assay: Hemolysis assay; type: cell-based; conditions: for Hemolysis IC50: human erythrocytes, 4 h at 37 °C, value in brackets; for IC50: red cells of human, 4 h
Protocol: Commercially available human blood (IWB1K2E10ML, Innovative Research Inc., Novi, MI, USA) was used to produce a 50% haematocrit solution by mixing at 1:1 with PBS 1× (P5493, 1 L, Sigma, St. Louis, MO, USA). Three consecutive PBS 1× washes plus centrifugation at 2600 rpm for 10 min steps were performed. Finally, a 2% erythrocyte solution was prepared in PBS 1× and chilled on ice until used. Polypropylene plates were filled with 50 µL PBS 1× per well for the samples and 50 µL 2% Triton X-100 (TX-100, 9002-93-1, 100 mL, Sigma, St. Louis, MO, USA) for the hemolysis controls. A solution at 4× final concentration of the assay of each peptide was prepared in PBS and 50 µL were added to the first column of each plate, followed by serial dilutions in the microplate. Then, 50 µL of the 2% erythrocyte solution was added to each plate. […] controls consisted in a 1:1 mix of PBS 1× and erythrocytes at 2%. Plates were incubated at 37 °C for 4 h and then centrifuged at 1500 rpm for 5 min. Eighty µL were extracted from the supernatant of each well carefully and transferred to a polystyrene flat bottom plate for reading and read at 450 nm in an Epoch microplate spectrophotometer (Epoch™, BioTek, Winooski, VT, USA).
The therapeutic index is a widely accepted parameter to represent the specificity of antimicrobial peptides for prokaryotic versus eukaryotic cells. It is calculated by the ratio of HC50 (hemolytic activity) and MIC (antimicrobial activity); thus, larger values of therapeutic index indicate greater specificity for prokaryotic cells.

[1] = tested on: P. aeruginosa ATCC 121110; assay: Time-kill kinetic assay; type: cell-based, Pseudomonas aeruginosa
Protocol: (§2) Timepoints to withdraw aliquots of liquid cultures for each peptide, concentration, and strain were established at the following: 0, 2, 4, 8, and 24 h after inoculation. McFarland 0.5 solutions (~1.5 × 10^8 CFU/mL) were prepared from single-picked colonies grown O/N at 37 °C in Columbia Agar plates. Thirteen mL Falcon tubes were used to prepare solutions containing 5 mL of total volume by adding the following: 1 mL of peptide solution at 5 times chosen assay concentration to test, 3.75 mL AST, and 0.25 mL of a 1:10 McFarland dilution in AST. Positive controls contained 4.75 mL AST and 0.25 mL of strain inoculum diluted in AST; negative controls only contained 5 mL of AST. After adding the inoculum into each tube and vortexing, a 150 µL aliquot was taken from each tube at timepoint 0 h. All tubes were then placed in a 37 °C shaker-incubator at 180 rpm. Likewise, for timepoints 2, 4, 8, and 24 h, a 150 µL aliquot was withdrawn at each time for each tube. Each of these aliquots was serially diluted in 1:10 ratio in PBS 1× and 20 µL of the serial dilutions were spread on LB agar plates and incubated O/N at 37 °C. […] grown in LB agar plates were counted. Bacterial concentration (CFU/mL) for each strain, timepoint, and peptide concentration tested was calculated. Bactericidal effect was considered when there was a decrease of at least 3 in log10 (CFU/mL) for each peptide concentration at a given timepoint against each bacterial strain studied. A detection limit of 50 CFU/mL was established, corresponding to 1.70 log10 (CFU/mL), as 20 µL of each direct aliquot sample was spread in LB agar plates. Three replicates were run per peptide and strain.

P. aeruginosa R2 = assay: Time-kill kinetic assay; type: cell-based, Pseudomonas aeruginosa
Protocol: as §2

[2] = tested on: P. aeruginosa R2 and 121110 strains; assay: Transmission electron microscopy of treated bacteria; type: cell-based, Pseudomonas aeruginosa; conditions: 4 h incubation at 4× MIC
Protocol: Bacterial strains P. aeruginosa R2 and 121110 under treatment with CAP-18, CAP-18_31, D-CAP-18, and D-CAP-18_31 were chosen for TEM visualization. A total of 5 mL AST broth cultures were prepared in 50 mL Falcon tubes and inoculated with single colonies grown in Columbia Agar incubated at 37 °C. Liquid cultures were then diluted 1:100 in fresh AST broth and incubated at 37 °C until OD 0.6 was reached. Cultures were then centrifuged 10 min at 3000× g at 4 °C, and supernatant was discarded and replaced by fresh AST. […] Results from TKC assays were used as a guidance to choose peptide concentrations and incubation times for TEM sample visualization. After incubation, tubes were centrifuged thrice for 15′ at 5000× g and 4 °C, substituting supernatant after each centrifugation by adding 10 mL PBS 1× to the pellet and resuspending. Supernatant was discarded after the final centrifugation step. Pellet was fixed by adding 1 mL of 2.5% glutaraldehyde + 2% paraformaldehyde in PBS 0.1 M at pH 7.4, and centrifuged 10′ at 5000× g and 4 °C. Supernatant was discarded 30 min after centrifugation and pellet was washed twice with 1 mL of fresh fixing solution. Samples were stored 4 °C O/N and processed by the Electronic Microscopy Unit, Medicine Faculty, University of Barcelona. University of Barcelona Microscopy Facilities.

Compound | IC50 (HeLa cells) | IC50 (A549 cells) | A549 IC50 (A549 cells) | Hemolysis IC50 (human erythrocytes) | IC50 (human erythrocytes) | incubation time to 3 log reduction / bactericidal effect ([1]; strain ATCC 121110, 4× MIC) | incubation time to 3 log reduction / bactericidal effect ([1]; strain ATCC 121110, 8× MIC) | effect after 24 h incubation (P. aeruginosa R2; strain R2, 4× MIC) | incubation time to bactericidal effect (decrease of at least 3 log10 CFU/mL) (P. aeruginosa R2; strain R2, 4× MIC) | effect after 24 h incubation (P. aeruginosa R2; strain R2, 8× MIC) | incubation time to bactericidal effect (decrease of at least 3 log10 CFU/mL) (P. aeruginosa R2; strain R2, 8× MIC) | effect on cell morphology (TEM) [2] | effect after 24 h incubation ([1]; strain ATCC 121110, 8× MIC) | incubation time to bactericidal effect (decrease of at least 3 log10 CFU/mL) (P. aeruginosa R2; strain R2, 2× MIC)
CC[C@@H](C)[C@@H](NC(=O)[C@@H](CCCCN)NC(=O)[C@@H](CCCCN)NC(=O)[C@@H](CC(C)C)NC(=O)[C@@H](CCCCN)NC(=O)[C@@H](CCC(=O)O)NC(=O)[C@@H](CCCCN)NC(=O)[C@H](NC(=O)[C@@H](CCCCN)NC(=O)[C@@H](CC(N)=O)NC(=O)[C@@H](CCCNC(=N)N)NC(=O)[C@@H](Cc1ccccc1)NC(=O)[C@@H](CCCCN)NC(=O)[C@@H](CCCNC(=N)N)NC(=O)[C@@H](CC(C)C)NC(=O)[C@@H](CCCNC(=N)N)NC(=O)[C@@H](CCCCN)NC(=O)[C@@H](CCCNC(=N)N)NC(=O)[C@@H](CC(C)C)NC(=O)CN)[C@H](C)CC)C(=O)NCC(=O)N[C@H](CCC(N)=O)C(=O)N[C@H](CCCCN)C(=O)N[C@@H](C(=O)N[C@H](CCC(N)=O)C(=O)NCC(=O)N[C@H](CC(C)C)C(=O)N[C@H](CC(C)C)C(=O)N1CCC[C@@H]1C(=O)N[C@H](CCCCN)C(=O)N[C@H](CC(C)C)C(=O)O)[C@H](C)CC [D-CAP-18_31, Glrkrlrkfrnkikeklkkigqkiqgllpkl] (H-G[dL][dR][dK][dR][dL][dR][dK][dF][dR][dN][dK][dI][dK][dE][dK][dL][dK][dK][dI]G[dQ][dK][dI][dQ]G[dL][dL][dP][dK][dL]-OH) | 6.16 µM | 12.3 µM | 45.94 µg/mL | 404.48 µg/mL | 108 µM | 4 h | 4 h | maintained after 24 h | 8 h | maintained after 24 h | 4 h | different stages of cellular damage | – | –
H-GLRKRLRKFRNKIKEKLKKIGQKIQGLLPKL-OH [CAP-18_31] | 13.1 µM | 1.31 µM | 4.89 µg/mL | 690.97 µg/mL | 185 µM | – | – | bacterial regrowth | 4 h | maintained the bactericidal effect after 24 h | 4 h | different stages of cellular damage | total eradication of the bacterial growth | 8 h
